The source of these data is patent US6391876B1 (Pharmacia and Upjohn Company, priority 1998, dated 2002).

Assay [1] deals with muscarinic cholinergic receptors. Description: interaction with muscarinic cholinergic receptors. In kind it is binding.
In assay [2] the test system is dopamine uptake. The source says:
(§1) Leonard-BE, “Noradrenaline in basic models of depression.” European-Neuropsychopharmacol. April 1997; 7 Suppl 1: S11-6; discussion S71-3.

Assay [3] relates to serotonin uptake.
Excerpt: as §1

Assay [4] deals with monoamine oxidase (MAO).
Excerpt: as §1

Assay [5] relates to norepinephrine uptake.
Excerpt: as §1

Assay [6] concerns patients with a DSM-III-R diagnosis of Obsessive Compulsive Disorder. Description: trial in patients with Obsessive Compulsive Disorder. The settings on record: 10 OCD patients, 3 to 4 weeks, 6 mg first week then 8 mg per day. The class given is in vivo, human.
The test system of assay [7] is I-adrenerigic receptors. Kind of assay: interaction with I-adrenerigic receptors. The class given is binding.
The conditions of assay [8]: in vivo; cited from earlier work.
For assay [9], the system named is patients with panic Disorder with or without Agoraphobia.
[10] abbreviates: vs placebo, at some point in time.

`CCOc1ccccc1OC(c1ccccc1)C1CNCCO1` (stereo not drawn) [reboxetine]: in [1], the “interaction with muscarinic cholinergic receptors” value is on record as “without showing any appreciable interaction”. Also, the “dopamine uptake inhibitory activity” value in assay [2] is on record as “no dopamine uptake inhibitory activity”. Besides, the “serotonin uptake inhibitory activity” value in [3] is reported as “only marginal”. In assay [4], the “monoamine oxidase (MAO) inhibitory activity” value was “devoid of monoamine oxidase (MAO) inhibitory activity”. In [5], the “norepinephrine uptake inhibitory activity” value is reported as “highly selective norepinephrine uptake inhibitor”. Further, in assay [6], the “patients judged minimally improved at CGI last assessment” value was determined as 2, the “patients judged much improved at CGI last assessment” value amounted to 4, the “patients judged very much improved at CGI last assessment” value is “one” and the “patients unchanged at CGI last assessment” value was 3. Moreover, in assay [7], the “interaction with I-adrenerigic receptors” value was “without showing any appreciable interaction”. For the same molecule, the “effect in the 8-OH-DPAT hypothermia test” value in assay [8] is “ineffective”. Further, in assay [9] (37 patients on reboxetine vs 38 on placebo), the “mean number of major panic attacks” value is recorded as “significantly lower than for those on placebo”. Besides, in assay [9] (setting [10]), the anticipatory anxiety result is “better”; the phobic symptoms entry is on record as “better”; the “social and family adjustment” value is on record as “better”.
